Consider 1 molecule from ChEMBL document CHEMBL6120990, “A Putative Frizzled 7-Targeting Compound Acts as a Firefly Luciferase Inhibitor” (J Med Chem, 2024).

SMILES strings stand for the structures. Calls of active or inactive are those of the source. No cut-off for these calls is given here.

For test [1], the system named is HEK293. Briefly: Inhibition of Wnt/beta-catenin signalling in deltaFZD1-10 HEK293 cells transfected with HiBit-FZD7 assessed as reduction in Wnt3a induced topflash signal at 10 uM pre-stimulated with Wnt3a followed by compound addition and measured after 24 hrs by dual luciferase reporter assay. The class given is cell-based. The conditions noted are these: Homo sapiens. A general note: With HiBiT, luminescence reflects the tagged protein that the partner subunit can reach.

In test [2] the test system is HEK293. Briefly: Inhibition of Wnt/beta-catenin signalling in deltaFZD1-10 HEK293 cells transfected with HiBit-FZD7 assessed as reduction in topflash signal at 10 uM incubated for 24 hrs by dual luciferase reporter assay. The class given is cell-based. To be noted: Homo sapiens.
Test [3] concerns HEK293. Briefly: Inhibition of firefly luciferase expression in deltaFZD1-10 HEK293 cells assessed as reduction in bioluminescence incubated for 24 hrs by microplate reader analysis. The format is functional, cell-based. The conditions noted are these: Homo sapiens, dose 0.1-1000 nM.
A short description of test [4]: Inhibition of firefly luciferase expression in deltaFZD1-10 HEK293 cells incubated for 24 hrs by microplate reader analysis. The class given is functional, cell-based. To be noted: Homo sapiens, HEK293, 24 h.
In test [5] the test system is HEK293. Put plainly: Effect on renilla luciferase level deltaFZD1-10 HEK293 cells assessed as reduction in Rluc-bioluminescence at 0.1 to 1000 nM incubated for 24 hrs by luminescence based analysis. The format is functional, cell-based. To be noted: Homo sapiens, dose 0.1-1000 nM.
A short description of test [6]: Inhibition of Wnt/beta-catenin signalling in deltaFZD1-10 HEK293 cells transfected with HiBit-FZD7 assessed as inhibition of CHIR99021-induced TOPFlash ratio incubated for 24 hrs by dual luciferase reporter assay. To be noted: Homo sapiens, HEK293, 24 h. The class given is cell-based.
The test system of test [7] is HEK293. Put plainly: Inhibition of Wnt/beta-catenin signalling in deltaFZD1-10 HEK293 cells transfected with FZD7-DEP-Clamp assessed as effect on WNT-3A induced FZD7-DEP-Clamp signal using furimazine as substrate at 10 uM preincubated for 10 mins followed by WNT-3A stimulation and measured every 2 mins for 1 hr by luminescence based analysis. The format is cell-based. The conditions noted are these: Homo sapiens, time 70.0 min.

For test [8], the system named is HEK293. Put plainly: Effect on Nano-luciferase activity in deltaFZD1-10 HEK293 cells at 0.1 to 1000 nM incubated for 24 hrs under TK promoter by luminescence based analysis. The format is functional, cell-based. The conditions noted are these: Homo sapiens, dose 0.1-1000 nM.
In test [9] the test system is MEF. Briefly: Effect on WNT-3A induced Axin2 mRNA expression in mouse MEF cells at 10 uM stimulated with WNT-3A prior to compound addition and measured after 24 hrs by qPCR analysis. The format is functional, cell-based. (In general: In qPCR the cycle at which signal appears reflects the starting amount.)

As for `Cc1ccc(C(=O)Nc2ccc(SCC(=O)Nc3nc(-c4ccccc4)cs3)cc2)c(C)c1`, the inhibition entry in [1] and in [2] was “Active” in each case. Moreover, the inhibition result in [3] is “Dose-dependent-effect”. Also, the IC50 was 23.7 nM in [4], 33 nM in [6] (read-out: IC50) and 33.9 nM in test [6] (read-out: pIC50 (converted)). The outcome in [5], in test [8] and in test [9] was inactive. Also, the inhibition result in test [7] is “inactive”.
